# Reference: patent publication US10768174B2, “Attachment of proteins to interfaces for use in nonlinear optical detection” (Bluelight Therapeutics, Inc., priority 2014, dated 2020)
# Tests used:
# [1] = molecular target: T1, maltose binding protein (MBP) (Escherichia coli, UniProt P0AEX9); assay: SHG detection of ligand-induced conformational change of lysine-labeled MBP tethered to Ni-NTA supported lipid bilayer; design: purchased AtGen Co, Ltd (Seongnam-si, Gyeonggi-do, South Korea); conditions: for change in SHG intensity (M): 2 mM maltose, MBP labeled at pH 7.5, N=3; for change in SHG signal (M): 2 mM, MBP labeled at pH 8.3, N=4
# Procedure: We also performed a similar set of experiments with MBP. First, we monitored the SHG intensity of MBP labeled at pH 8.3 upon addition of buffer, lactose, or maltose. […] Because the addition of both 2 mM lactose and buffer alone result in negligible changes in SHG intensity, the change in SHG intensity upon maltose addition is specific to ligand-induced conformational change upon binding.
# The converse trend, preference at K88 over K15, was observed when the experimental conditions changed to pH 8.3. […] Based on inspection of the crystal structures, we hypothesized that when MBP is primarily labeled at K15 rather than K88, this could alter the directionality of SHG signal change upon ligand addition relative to the reverse case, since K15 and K88 appear to rotate towards and away from the surface normal, respectively, assuming the protein is oriented with its N-terminus facing the bilayer. […] Consistent with previous results, the addition of lactose and buffer alone had no effect.
# J Am Chem Soc 136(29):10349-10360). […] (under standard kinetic condition described in ref [28].
# Excess protein was removed by additional washes after incubation.
# (§1) SHG signal was monitored over several minutes after injection.
# calmodulin (CaM) = molecular target: T2, calmodulin (CaM) (Homo sapiens, UniProt P0DP23); assay: SHG detection of ligand-induced conformational change of labeled calmodulin tethered to Ni-NTA supported lipid bilayer; type: binding; conditions: buffer containing 1 mM CaCl2 injected; N=3
# T2 construct: purchased EMD Millipore (Billerica, Mass.)
# Source text: MBP and CaM Proteins: To explore the ability of our SHG bilayer system to detect and measure conformational changes of a protein, we began by testing the system on CaM and MBP, two proteins previously studied by SHG [32, 33]. First, we tethered labeled CaM to the SLB surface and monitored the change in SHG intensity upon addition of the calmodulin binding peptide (CBP) in the presence or absence of calcium-containing buffers. […] When calcium is omitted from the buffer, addition of the peptide alone results in M=3.1%, (N=3, SEM±1.6) change in SHG intensity, essentially no change (FIG. 7B). […] Next, we evaluated the effect of adding calcium ions. […] Peptide was then added directly to these samples two minutes after calcium addition, producing a positive signal change of M=8.7% (N=3, SEM±0.4). As the magnitude of the SHG signal is proportional to the net, average orientation of the dye label relative to the surface normal, the different magnitudes of SHG signal change upon binding CBP and calcium to unbound CaM confirm that these ligands bind to specific and different conformations of the protein. SHG signal changes can occur in either the positive or negative direction relative to baseline depending on whether the net, average orientation of the probe moves closer to or further away from the surface normal, respectively. […]
# as §1
# His-tag-Ni-NTA linkage = assay: Specificity of protein attachment to bilayer: incubation with or without imidazole, SHG signal; type: binding; conditions: imidazole 350 mM (FIG. 6A legend) / 300 mM (methods)
# Procedure: We began by characterizing the attachment of the proteins to our SLB surface. The SLB surface we employed has integrated immobilized metal affinity (Ni-NTA) chemistry to specifically tether the proteins to the bilayer in an oriented manner via a poly-histidine tag at the N- or C-terminus. To test the specificity of this interaction, each protein was incubated on the bilayer in the presence or absence of imidazole, a competitive inhibitor of His-tagged protein binding. […] When labeled protein is incubated in the presence of imidazole, SHG signal levels are reduced to less than 10% of the original signal or to background levels, i.e. to those of bilayer alone.
# [2] = molecular target: monomeric forms of avidin or streptavidin; conditions: read-out: biotin-binding affinity of monomeric forms of avidin or streptavidin; cited from earlier work
# [3] = molecular target: T1, maltose binding protein (MBP); assay: Example 2 SHG kinetic reads of PyMPO-labeled His-tagged MBP tethered on 10% Ni-NTA bilayer; conditions: 10 uL injection of 2 mM solution into 10 uL well; 10% Ni-NTA tethered MBP
# Procedure: Protein labeling protocol: Stock His-tagged maltose binding protein (MBP) (1 mL at nominal 0.5 mg/mL) was buffer exchanged from 20 mM Tris-HCL pH 8.0, 0.1 M NaCl, 10% Glycerol into 0.1 M Na phosphate, pH 7.5 by passing over two of the 2 mL Zeba™ Spin Desalting Columns (Thermo Scientific) equilibrated per the manufacturer's instructions. Concentration and volume of the buffer exchanged material were determined by measuring absorbance on a NanoDrop Spectrophotometer (Thermo Scientific). PyMPO-NHS was weighed out and dissolved to 2 mM in dry DMSO. PyMPO-NHS was added to the buffer exchanged MBP at 3.5:1 mole equivalents. The conjugation reaction was allowed to proceed in the dark at room temp, stirring gently, for 15 minutes. The reaction was terminated by buffer exchange back into the MBP storage buffer (20 mM Tris-HCL pH 8.0, 0.1 M NaCl, 10% Glycerol) over a fresh pair of Zeba™ Spin Desalting Columns. The resultant conjugate was centrifuged at 16K×g for 20 minutes at 4° C., and volume, concentration and degree of labeling was determined for the supernatant by measuring absorbance at 280 nm and 410 nm on the NanoDrop. […]
# Scanning: The entire slide was line scanned to gather SHG data for determining the relative tethering efficiency of 3% vs 10% Ni-NTA surfaces. Well positions for 10% Ni-NTA tethered MBP were recorded and used to set up the MBP kinetic reads (3 wells total). […]
SMILES,change in SHG intensity (M) [1],change in SHG signal (M) [1],further results
OC[C@H]1O[C@@H](O[C@H]2[C@H](O)[C@@H](O)C(O)O[C@@H]2CO)[C@H](O)[C@@H](O)[C@H]1O (some centres unmarked) [lactose],no effect,0.44%,
[Ca+2].[Cl-].[Cl-] [CaCl2],,,change in SHG signal (M) (calmodulin (CaM)): −12.6%
c1c[nH]cn1 [imidazole],,,SHG signal level of labeled protein incubated in the presence of imidazole (His-tag-Ni-NTA linkage): less than 10 % of the original signal
O=C(O)CCCC[C@@H]1SC[C@@H]2NC(=O)N[C@@H]21 [biotin],,,Kd [2]: ~10 nM
OC[C@H]1O[C@H](O[C@H]2[C@H](O)[C@@H](O)[C@H](O)O[C@@H]2CO)[C@H](O)[C@@H](O)[C@@H]1O [maltose],27.4%,−33.8%,SHG response (induced conformational change) of MBP [3]: only responded to addition of maltose
